Entries after “also recorded” stand apart in the source; their conditions may differ.
Target: DRB1*0101, 0301, 0401, 0701, 1101, 1301,1501 (Homo sapiens, UniProt P01903+P01911, A100R/D57E/F55L/F60I/F76Y/I96L/L162R/M171V/P40L/Q125E/R42F/V115G/Y59C)
Test: REVEAL Class II binding assay and Quick Check Stability Assay (MHC-peptide binding)
Settings: 7 DRB1 alleles; stability index ≧1.0 considered positive for MHC binding
Experimental: The MHC restriction of peptides from ProPred prediction were evaluated using the REVEAL Class II binding assay and Quick Check Stability Assay performed by ProImmune (Oxford, United Kingdom). In the REVEAL cell free in vitro assay, the binding of a peptide to an HLA molecule is determined by its ability to stabilize a MHC class II-peptide complex. Each MHC class II-peptide binding was scored relative to a validated proprietary T cell epitope control peptide. The score was determined as the percentage of the signal generated by the test peptide versus the level for the positive control peptide and reflects the on-rate properties of peptide. The off-rate properties of the peptide were determined by the Quick Check Stability Assay which measured the amount of peptide bound at time zero and time 24 hours at 37° C. The two signals were used to estimate a half-life which was multiplied by the REVEAL score and divided by 100 to yield the combined stability index. A stability index ≧1.0 was considered positive for MHC binding.
To confirm ProPred predictions and to validate peptides for continued analysis using IL-4 ELISPOT, an in vitro MHC-peptide binding assay was used to measure binding of 22/25 15mers (excluding p3-17, 42-56, and 43-57) to the 7 DRB1 alleles which accounted for the majority of the ProPred predictions (Table II). […] High stringency binding prediction rates were accurate for alleles *0301 (none predicted) and *1501 (none predicted), while inaccurate with low stringency positive binding prediction rates of 0% (0/10) and 25% (1/4), respectively. Both alleles *0301 and *1501 had low false negative rates of 8% (1/12) and 6% (1/18), respectively. ProPred was inaccurate at both high and low stringency for the three remaining alleles with a 0% binding prediction rate for *0701 (0/9), *1101 (0/14) and *1301 (0/7) but also yielding 0% false negative rates at 0/13, 0/8 and 0/14, respectively. […]

Compound	in vitro binding to DRB1 alleles
H-RSGLLLKQKVSDDIT-OH [p103-117]	non-binding; also recorded: no in vitro binding to any DRB1 allele
H-SGLLLKQKVSDDITY-OH [p104-118]	non-binding; also recorded: no in vitro binding to any DRB1 allele
H-EGDYVWKISEFYGRK-OH [p35-49]	non-binding; also recorded: no in vitro binding to any DRB1 allele

Test system: PBMCs of Alternaria allergic patients and control subjects
Test: IL-4 ELISPOT of PBMCs exposed to peptide
Type: cell-based, human
Settings: Alt a 5 peptide; three Alternaria patients; methods as Example 1
Excerpt: Peripheral blood was obtained by venipuncture from Alternaria allergic patients and non-sensitized controls. Peripheral blood mononuclear cells (PBMCs) were isolated from heparinized blood by standard Ficoll density gradient centrifugation. PBMCs were washed with CTL (Cellular Technology Limited, Cleveland, Ohio, USA) wash medium containing RPMI-1640 with L-glutamine (Lonza, Basel, Switzerland) before being counted by haemocytometer using trypan blue stain (Sigma). PBMCs (10 million/ml) were resuspended in CTL-Cryo ABC serum-free freezing medium according to the manufacturer's protocol before being frozen overnight at −80° C. and transferred to and stored in liquid nitrogen until time of use.
Enzyme-linked immunospot assay (ELISPOT) analysis was performed utilizing 16 Alternaria patients and 11 controls. For an individual peptide the number of Alternaria patients tested ranged between 10-15 and the number of control subjects ranged between 7-9. Ten Alternaria patients were fully tested with all 22 peptides. For ELISPOT, the BD ELISPOT Human IL-4 Set (BD Biosciences, San Diego, Calif., USA) was used to analyze IL-4 production by human PBMCs. Plates were coated overnight at 4° C. with IL-4 capture antibody (BD Biosciences) and then washed 3 times with Dulbecco's Phosphate Buffer Saline (DPBS, Sigma). Plates were blocked with 1% BSA (Sigma) in PBS for 2 h at room temperature and washed 3 times with DPBS. Cryopreserved Alternaria patient and control subject PBMCs were thawed rapidly, washed, counted, and resuspended in CTL Test Medium supplemented with 2 mM L-glutamine (Sigma) and used at a concentration of 300,000 cells/well contained in 100 μl. […] The plates were dried and analyzed on the ImmunoSpot UV Core ELISPOT Plate Reader (Cellular Technology Limited).
The two-independent sample Wilcoxon rank sum test was used for statistical analysis of ELISPOT data (26). A one-sided control<patient p-value was determined except for peptides 7-21 and 143-157 where a one-sided patient >control p-value was calculated. […]
Two methods were evaluated to interpret the IL-4 ELISPOT spot count data. […]

Compound	activity in Alternaria patients (ELISPOT)
H-AAYLLLGLGGNTSPS-OH [p5-19]	active in all 3 patients

Same assay, conditions: IL-4 ELISPOT, cut-off >9 spot counts

Compound	number of patients stimulated
CC[C@H](C)[C@H](NC(=O)[C@H](Cc1ccc(O)cc1)NC(=O)[C@H](C)NC(=O)[C@H](CC(=O)O)NC(=O)[C@H](C)NC(=O)[C@@H](N)C(C)C)C(=O)N[C@H](C(=O)N[C@@H](CC(C)C)C(=O)N[C@H](C(=O)N[C@H](C(=O)N[C@@H](CC(C)C)C(=O)N1CCC[C@H]1C(=O)N[C@@H](CCCCN)C(=O)N[C@@H](CO)C(=O)N[C@@H](CO)C(=O)O)[C@@H](C)O)C(C)C)[C@@H](C)O [p143-157]	one
H-LQFTTIASLFAAAGL-OH [p1-15]	one

Test system: not listed separately
Test: Peptide solubility in sterile pure water
Type: physicochemical
Settings: not given
Experimental: The theoretical average peptide hydrophilicity was calculated using the Hopp and Woods scale (28). For solubility determination, peptides were dissolved in sterile pure water at 50mg/ml (pH=7), mixed, centrifuged and the presence of a pellet indicated insolubility. Insoluble peptides were sequentially diluted and tested down to 2.5mg/ml or until solubility was observed. Peptides not fully dissolved at 2.5mg/ml were considered insoluble in this study.

Compound	solubility in H2O
H-VNSLGFNIKATNGGT-OH [p55-69:Y55V]	insoluble
H-SADAYITLVTLPKSS-OH [p143-157:V143S]	soluble
H-EKDFVVQGVADAYIT-OH [p135-149:P135E]	insoluble
H-ENSLGFNIKATNGGT-OH [p55-69:Y55E]	soluble
H-SNSLGFNIKATNGGT-OH [p55-69:Y55S]	soluble
CC[C@H](C)[C@H](NC(=O)[C@H](Cc1ccc(O)cc1)NC(=O)[C@H](C)NC(=O)[C@H](CC(=O)O)NC(=O)[C@H](C)NC(=O)[C@@H](N)C(C)C)C(=O)N[C@H](C(=O)N[C@@H](CC(C)C)C(=O)N[C@H](C(=O)N[C@H](C(=O)N[C@@H](CC(C)C)C(=O)N1CCC[C@H]1C(=O)N[C@@H](CCCCN)C(=O)N[C@@H](CO)C(=O)N[C@@H](CO)C(=O)O)[C@@H](C)O)C(C)C)[C@@H](C)O [p143-157]	insoluble
H-LQFTTIASLFAAAGL-OH [p1-15]	insoluble
H-AADAYITLVTLPKSS-OH [p143-157:V143A]	insoluble
H-EADAYITLVTLPKSS-OH [p143-157:V143E]	soluble
H-ETYYNSLGFNIKATN-OH [p52-66:G52E]	insoluble
H-SKDFVVQGVADAYIT-OH [p135-149:P135S]	insoluble
CC[C@H](C)[C@H](N)C(=O)N[C@@H](C)C(=O)N[C@@H](CO)C(=O)N[C@@H](CC(C)C)C(=O)N[C@@H](Cc1ccccc1)C(=O)N[C@@H](C)C(=O)N[C@@H](C)C(=O)N[C@@H](C)C(=O)NCC(=O)N[C@@H](CC(C)C)C(=O)N[C@@H](C)C(=O)N[C@@H](C)C(=O)N[C@@H](C)C(=O)N[C@@H](C)C(=O)N1CCC[C@H]1C(=O)O [p6-20]	insoluble
H-EDDITYVATATLPNY-OH [p113-127:S113E]	insoluble
H-EETYYNSLGFNIKAT-OH [p51-65:G52E]	insoluble
H-STYYNSLGFNIKATN-OH [p52-66:G52S]	soluble
H-ANSLGFNIKATNGGT-OH [p55-69:Y55A]	soluble
H-ESTYYNSLGFNIKAT-OH [p51-65:G52S]	soluble
H-PKDFVVQGVADAYIT-OH [p135-149]	insoluble

Same assay, conditions: sterile pure water pH=7, 50mg/ml diluted down to 2.5mg/ml; not fully dissolved at 2.5mg/ml = insoluble

Compound	solubility in H2O
H-SDDITYVATATLPNY-OH [p113-127]	insoluble
H-ASLFAAAGLAAAAPL-OH [p7-21]	insoluble
H-YNSLGFNIKATNGGT-OH [p55-69]	insoluble
H-FTTIASLFAAAGLAA-OH [p3-17]	insoluble
H-EGTYYNSLGFNIKAT-OH [p51-65]	insoluble
H-GTYYNSLGFNIKATN-OH [p52-66]	insoluble

Test system: T cells expanded for 14 days with allergen extract and IL-2
Test: not given
Settings: allergic population; cited from earlier work

Compound	IL-5 and INF-γ ELISPOT result
CC[C@H](C)[C@H](NC(=O)[C@H](Cc1ccc(O)cc1)NC(=O)[C@H](C)NC(=O)[C@H](CC(=O)O)NC(=O)[C@H](C)NC(=O)[C@@H](N)C(C)C)C(=O)N[C@H](C(=O)N[C@@H](CC(C)C)C(=O)N[C@H](C(=O)N[C@H](C(=O)N[C@@H](CC(C)C)C(=O)N1CCC[C@H]1C(=O)N[C@@H](CCCCN)C(=O)N[C@@H](CO)C(=O)N[C@@H](CO)C(=O)O)[C@@H](C)O)C(C)C)[C@@H](C)O [p143-157]	positive for IL-5 only
H-LQFTTIASLFAAAGL-OH [p1-15]	negative to both cytokines
CC[C@H](C)[C@H](N)C(=O)N[C@@H](C)C(=O)N[C@@H](CO)C(=O)N[C@@H](CC(C)C)C(=O)N[C@@H](Cc1ccccc1)C(=O)N[C@@H](C)C(=O)N[C@@H](C)C(=O)N[C@@H](C)C(=O)NCC(=O)N[C@@H](CC(C)C)C(=O)N[C@@H](C)C(=O)N[C@@H](C)C(=O)N[C@@H](C)C(=O)N[C@@H](C)C(=O)N1CCC[C@H]1C(=O)O [p6-20]	positive for IL-5 only

Source: patent US20160130311A1, “T CELL EPITOPES DERIVED FROM ALT A 1 OR ALT A 5 FOR THE TREATMENT OF ALTERNARIA ALTERNATA ALLERGY” (priority 2013, published 2016)
